System: tuberin
Test: Tuberin mobility shift on SDS-PAGE in transfected HeLa cells
Assay type: cell-based, human
Excerpt: FIG. 7A: In vitro kinase assay using FLAG-tagged tuberin as a substrate for LKB1-activated AMPK. Purified E. coli produced recombinant AMPK was activated by an in vitro kinase assay with wild-type LKB1, kinase-dead LKB1, or untransfected control immunoprecipitates then isolated and assayed for its ability to phosphorylate tuberin in vitro. FIG. 7B: Comparison of recombinant Akt-mediated tuberin phosphorylation in vitro to recombinant AMPK phosphorylation in vitro. Note that only AMPK-mediated phosphorylation induces a significant mobility shift in tuberin on SDS-PAGE. C: HeLa cells were co-transfected with FLAG-tagged tuberin, and empty vector or wild-type LKB1 and treated with 2 mM AICAR where indicated. Total cell lysates were then immunoblotted with anti-FLAG antisera to detect the introduced tuberin. Note the significant mobility shift induced by AICAR treatment of LKB1-expressing cells. […] FIG. 7D: HeLa cells were transfected with HA-tagged S6K1 and FLAG-tagged wild-type LKB1 along with empty vector, or dominant negative AMPK alpha1 (GST-tagged) or dominant negative AMPK alpha2 (myc tagged). Cells were treated with 2 mM AICAR for 2 h where indicated. HA-immunoprecipitates were immunoblotted with phospho-Thr389 S6K1 antisera to detect activated S6K1 and reprobed for total HA-S6K1 levels. […]

NC(=O)c1ncn([C@@H]2O[C@H](CO)[C@@H](O)[C@H]2O)c1N [AICAR, 5-aminoimidazole-4-carboxamide 1-β-D-ribofuranoside]
tuberin mobility on SDS-PAGE (HeLa cells expressing wild-type LKB1, 2 mM AICAR): significant reduction in tuberin mobility | tuberin mobility on SDS-PAGE (HeLa cells in the absence of LKB1 expression, AICAR): no effect on tuberin mobility

Reference: patent US20120122991A1, “METHOD FOR TREATING CANCER BY INCREASING AMP-ACTIVATED KINASE ACTIVITY” (Dana-Farber Cancer Institute, Inc., priority 2003, published 2012)
